According to ChEMBL document CHEMBL1201862, “PubChem BioAssay data set” (2004):
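Briefly, cells in 96-well plates were exposed to five compound concentrations for 48 h, and endpoints were estimated by linear interpolation. GI50: concentration for 50% inhibition of growth.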 Calls of active or inactive are those of the source. Rule as the data show it: active = GI50 up to about 1.1 µM and inactive = higher.

Tests used:
Test in all cases: NCI tumour cell line growth inhibition, 48 h
PC-3 = test system: PC-3
MCF7 = test system: MCF7
SF-539 = test system: SF-539
COLO 205 = test system: COLO 205
SF-268 = test system: SF-268
MOLT-4 = test system: MOLT-4
SF-295 = test system: SF-295
HCT-116 = test system: HCT-116
SK-MEL-5 = test system: SK-MEL-5
OVCAR-3 = test system: OVCAR-3
SK-OV-3 = test system: SK-OV-3
NCI-H226 = test system: NCI-H226
A549 = test system: A549
ACHN = test system: ACHN
IGROV-1 = test system: IGROV-1
M14 = test system: M14
SN12C = test system: SN12C
HOP-62 = test system: HOP-62
A498 = test system: A498

Structure (SMILES) | GI50 (PC-3) | GI50 (MCF7) | GI50 (SF-539) | GI50 (COLO 205) | GI50 (SF-268) | GI50 (MOLT-4) | GI50 (SF-295) | GI50 (HCT-116) | GI50 (SK-MEL-5) | GI50 (OVCAR-3) | GI50 (SK-OV-3) | GI50 (NCI-H226) | GI50 (A549) | GI50 (ACHN) | GI50 (IGROV-1) | GI50 (M14) | GI50 (SN12C) | GI50 (HOP-62) | GI50 (A498)
Nc1c(C(=O)O)nnc2cc(Cl)ccc12 | > 100 µM (inactive) | > 100 µM (inactive) | > 100 µM (inactive) | > 100 µM (inactive) | > 100 µM (inactive) | > 100 µM (inactive) | > 100 µM (inactive) | > 100 µM (inactive) | > 100 µM (inactive) | > 100 µM (inactive) | > 100 µM (inactive) | > 100 µM (inactive) | > 100 µM (inactive) | 97.5 µM (inactive) | > 100 µM (inactive) | > 100 µM (inactive) | > 100 µM (inactive) | > 100 µM (inactive) | 85.3 µM (inactive)
Nc1nc(N)c(C2=CCN(Cc3ccccc3)CC2)c(=O)[nH]1 | > 100 µM (inactive) | > 100 µM (inactive) | > 100 µM (inactive) | > 100 µM (inactive) | > 100 µM (inactive) | > 100 µM (inactive) | > 100 µM (inactive) | > 100 µM (inactive) | > 100 µM (inactive) | > 100 µM (inactive) | > 100 µM (inactive) | > 100 µM (inactive) | > 100 µM (inactive) | > 100 µM (inactive) | > 100 µM (inactive) | > 100 µM (inactive) | > 100 µM (inactive) | > 100 µM (inactive) | > 100 µM (inactive)
O=C(c1ccccc1F)c1c(NCc2ccccc2)c(=O)c1=O | > 100 µM (inactive) | > 100 µM (inactive) | > 100 µM (inactive) | > 100 µM (inactive) | > 100 µM (inactive) | > 100 µM (inactive) | > 100 µM (inactive) | > 100 µM (inactive) | > 100 µM (inactive) | > 100 µM (inactive) | > 100 µM (inactive) | > 100 µM (inactive) | > 100 µM (inactive) | > 100 µM (inactive) | 55.7 µM (inactive) | > 100 µM (inactive) | > 100 µM (inactive) | > 100 µM (inactive) | > 100 µM (inactive)
CO[C@@H]1C[C@H]2N3CC[C@@]2(c2cc4c(cc2C3)OCO4)[C@H]2O[C@@H]12 | > 100 µM (inactive) | > 100 µM (inactive) | 0.603 µM (active) | 0.851 µM (active) | > 100 µM (inactive) | > 100 µM (inactive) | > 100 µM (inactive) | > 100 µM (inactive) | 0.157 µM (active) | > 100 µM (inactive) | > 100 µM (inactive) | 1.34 µM (inactive) | > 100 µM (inactive) | > 100 µM (inactive) | > 100 µM (inactive) | > 100 µM (inactive) | > 100 µM (inactive) | > 100 µM (inactive) | > 100 µM (inactive)
CCC(=O)O[C@H]1CC[C@H]2[C@@H]3CCC4=CC(=O)C=C[C@]4(O)[C@H]3CC[C@]12C | 23.8 µM (inactive) | 23.9 µM (inactive) | 29.6 µM (inactive) | 37.8 µM (inactive) | 31 µM (inactive) | 8.87 µM (inactive) | 26.1 µM (inactive) | 21.9 µM (inactive) | 5.22 µM (inactive) | 19.8 µM (inactive) | 82.6 µM (inactive) | > 100 µM (inactive) | 16.1 µM (inactive) | 55.7 µM (inactive) | 22.4 µM (inactive) | 22.5 µM (inactive) | 41.9 µM (inactive) | 29.4 µM (inactive) | > 100 µM (inactive)
CN[C@@H](C)[C@H](OP(=O)(O)OC1[C@@H](O)[C@H](O)C(O)[C@H](O)[C@@H]1O)c1ccccc1 (stereo partly specified) | > 100 µM (inactive) | > 100 µM (inactive) | 16.3 µM (inactive) | > 100 µM (inactive) | > 100 µM (inactive) | > 100 µM (inactive) | > 100 µM (inactive) | > 100 µM (inactive) | > 100 µM (inactive) | > 100 µM (inactive) | > 100 µM (inactive) | > 100 µM (inactive) | > 100 µM (inactive) | > 100 µM (inactive) | > 100 µM (inactive) | > 100 µM (inactive) | > 100 µM (inactive) | > 100 µM (inactive) | > 100 µM (inactive)
O=[N+]([O-])c1ccc2c(c1)Nc1c3ccccc3nc3cccc-2c13 | 2.35 µM (inactive) | 0.219 µM (active) | 12.1 µM (inactive) | 2.68 µM (inactive) | 8.61 µM (inactive) | 0.895 µM (active) | 0.482 µM (active) | 5.38 µM (inactive) | 0.883 µM (active) | 0.689 µM (active) | 2.04 µM (inactive) | 25.9 µM (inactive) | 2.16 µM (inactive) | 18.1 µM (inactive) | 1.47 µM (inactive) | 3.21 µM (inactive) | 11.3 µM (inactive) | 2.07 µM (inactive) | 34.5 µM (inactive)
COc1cc2cc[n+](C)c(Cc3ccc(Oc4cc(Cc5c6cc(OC)c(OC)cc6cc[n+]5C)ccc4OC)cc3)c2cc1OC | 91.4 µM (inactive) | > 100 µM (inactive) | > 100 µM (inactive) | > 100 µM (inactive) | > 100 µM (inactive) | 60.1 µM (inactive) | 59.2 µM (inactive) | > 100 µM (inactive) | > 100 µM (inactive) | > 100 µM (inactive) | > 100 µM (inactive) | > 100 µM (inactive) | > 100 µM (inactive) | > 100 µM (inactive) | > 100 µM (inactive) | > 100 µM (inactive) | > 100 µM (inactive) | > 100 µM (inactive) | > 100 µM (inactive)
N#Cc1c(SCc2ccccc2)nc(-c2ccccc2)[nH]c1=S | 18.7 µM (inactive) | 26.1 µM (inactive) | 25.2 µM (inactive) | 17.1 µM (inactive) | 22 µM (inactive) | 29 µM (inactive) | 22.4 µM (inactive) | 23.7 µM (inactive) | 19.3 µM (inactive) | 18.5 µM (inactive) | 23.4 µM (inactive) | 26.5 µM (inactive) | 30.8 µM (inactive) | 23 µM (inactive) | 29.9 µM (inactive) | 29.9 µM (inactive) | 32.5 µM (inactive) | 19.8 µM (inactive) | 27.3 µM (inactive)
CC(O)c1cc2c(s1)C(=O)c1scc(C(C)O)c1C2=O (stereo unspecified) | 0.388 µM (active) | 0.413 µM (active) | 0.23 µM (active) | 1.91 µM (inactive) | 0.28 µM (active) | 0.753 µM (active) | 0.168 µM (active) | 0.659 µM (active) | 0.156 µM (active) | 0.393 µM (active) | 2.64 µM (inactive) | 2 µM (inactive) | 0.67 µM (active) | 0.853 µM (active) | 1.68 µM (inactive) | 0.19 µM (active) | 0.53 µM (active) | 0.973 µM (active) | 2.2 µM (inactive)
O=C(O)C(Oc1nc(S)nc(S)n1)(c1ccc(Cl)cc1)c1ccc(Cl)cc1 | > 100 µM (inactive) | > 100 µM (inactive) | > 100 µM (inactive) | > 100 µM (inactive) | > 100 µM (inactive) | > 100 µM (inactive) | > 100 µM (inactive) | > 100 µM (inactive) | > 100 µM (inactive) | > 100 µM (inactive) | > 100 µM (inactive) | > 100 µM (inactive) | > 100 µM (inactive) | > 100 µM (inactive) | > 100 µM (inactive) | > 100 µM (inactive) | > 100 µM (inactive) | > 100 µM (inactive) | > 100 µM (inactive)
CCOC(=O)C1=C(C)N(Cc2ccccc2)C2(O)C=CC(O)=C3C(=O)c4ccccc4C(=O)C312 (stereo unspecified) | 19.2 µM (inactive) | 0.128 µM (active) | 16.3 µM (inactive) | 16.8 µM (inactive) | 10.1 µM (inactive) | 8.15 µM (inactive) | 10.3 µM (inactive) | 10.2 µM (inactive) | 10.3 µM (inactive) | 7.67 µM (inactive) | 29.6 µM (inactive) | 20.6 µM (inactive) | 15.3 µM (inactive) | 17.4 µM (inactive) | 4.16 µM (inactive) | 4.99 µM (inactive) | 13.5 µM (inactive) | 14.2 µM (inactive) | 23.6 µM (inactive)
COc1ccc(C2Oc3ccc(Cl)cc3C=C2[N+](=O)[O-])cc1OC (stereo unspecified) | 1.32 µM (inactive) | 0.776 µM (active) | 1.55 µM (inactive) | 1.16 µM (inactive) | 0.617 µM (active) | 0.216 µM (active) | 1.48 µM (inactive) | 0.426 µM (active) | 1.53 µM (inactive) | 0.719 µM (active) | 2.3 µM (inactive) | 1.64 µM (inactive) | 1.83 µM (inactive) | 1.43 µM (inactive) | 1.56 µM (inactive) | 0.231 µM (active) | 0.871 µM (active) | 1.49 µM (inactive) | 3.37 µM (inactive)
CN(C)C(n1cc2c(c1)-c1ccc(Cl)cc1C(c1ccccc1F)=NC2)n1cc2c(c1)-c1ccc(Cl)cc1C(c1ccccc1F)=NC2 | 46.6 µM (inactive) | 64.3 µM (inactive) | > 100 µM (inactive) | > 100 µM (inactive) | 36 µM (inactive) | > 100 µM (inactive) | 26.3 µM (inactive) | 61.1 µM (inactive) | > 100 µM (inactive) | 87.5 µM (inactive) | > 100 µM (inactive) | 13 µM (inactive) | 52.4 µM (inactive) | 63.2 µM (inactive) | > 100 µM (inactive) | 93.1 µM (inactive) | > 100 µM (inactive) | > 100 µM (inactive) | 8.17 µM (inactive)
